Values joined by “and” are separate entries in the source; they are usually repeats but may differ in a detail not shown here. Identical values can stand only once. Inconclusive results and toxic doses are left out. The calls were made as follows: active = survival T/C of 150% or more; inactive = T/C below 125% in these data.
Test system: CD2F1 mice, L1210 leukemia ip, survival T/C
Assay: NCI In Vivo Anticancer Drug Screen. Data for tumor model L1210 Leukemia (intraperitoneal) in CD2F1 (CDF1) mice
Details: endpoint: mean survival time, higher = longer survival
In short: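 Vehicle-treated tumor-bearing mice served as controls (C) for compound-treated mice (T). Reported figure is T divided by C.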

[1] = dose: 100.0 mg/kg/injection, schedule: Q04DX003 (ip), vehicle: saline with Tween-80
[2] = dose: 200.0 mg/kg/injection, schedule: Q04DX003 (ip), vehicle: saline with Tween-80
[3] = dose: 400.0 mg/kg/injection, schedule: Q04DX003 (ip), vehicle: saline with Tween-80
[4] = dose: 100.0 mg/kg/injection, schedule: Q01DX001 (ip), vehicle: saline
[5] = dose: 200.0 mg/kg/injection, schedule: Q01DX001 (ip), vehicle: saline
[6] = dose: 400.0 mg/kg/injection, schedule: Q01DX001 (ip), vehicle: saline
[7] = dose: 100.0 mg/kg/injection, schedule: Q01DX001 (ip), vehicle: saline with Tween-80
[8] = dose: 100.0 mg/kg/injection, schedule: Q04DX002 (ip), vehicle: saline with Tween-80
[9] = dose: 200.0 mg/kg/injection, schedule: Q01DX001 (ip), vehicle: saline with Tween-80
[10] = dose: 400.0 mg/kg/injection, schedule: Q01DX001 (ip), vehicle: saline with Tween-80

Measured: T/C

O=[N+]([O-])c1ccc(N=Cc2ccc3c(c2)OCO3)cc1
inactive: dose: 100.0 mg/kg/injection, schedule: Q01DX001 (ip), vehicle: Klucel (hydroxypropylcellulose) (HPC) 106 % of control | dose: 100.0 mg/kg/injection, schedule: Q01DX009 (ip), vehicle: Klucel (hydroxypropylcellulose) (HPC) 96 % of control | dose: 200.0 mg/kg/injection, schedule: Q01DX001 (ip), vehicle: Klucel (hydroxypropylcellulose) (HPC) 101 % of control | dose: 200.0 mg/kg/injection, schedule: Q01DX009 (ip), vehicle: Klucel (hydroxypropylcellulose) (HPC) 97 % of control | dose: 400.0 mg/kg/injection, schedule: Q01DX001 (ip), vehicle: Klucel (hydroxypropylcellulose) (HPC) 96 % of control | dose: 400.0 mg/kg/injection, schedule: Q01DX009 (ip), vehicle: Klucel (hydroxypropylcellulose) (HPC) 96 % of control

CCCC(NC(=O)C(C)Br)C(=O)O (centres undefined)
inactive: [1] 95 % of control | [2] 96 % of control | [3] 100 % of control

O=C(Nc1ccc(Oc2ccccc2)cc1)c1ccc(C(=O)Nc2ccc(Oc3ccccc3)cc2)cc1
inactive: [4] 92 % of control | [5] 92 % of control | [6] 95 % of control

CC(=O)N1NC2C(=O)N(C3CCCCC3)CC2C1c1ccc(N(C)C)cc1 (centres undefined)
inactive: [7] 100 % of control | [8] 103 % of control | [9] 100 % of control | dose: 200.0 mg/kg/injection, schedule: Q04DX002 (ip), vehicle: saline with Tween-80 100 % of control | [10] 100 % of control | dose: 400.0 mg/kg/injection, schedule: Q04DX002 (ip), vehicle: saline with Tween-80 92 % of control

Cc1cc2cc3c(=O)[nH]c(=O)nc-3n(CC(O)C(O)C(O)CO)c2cc1C (centres undefined)
inactive: [4] 103 % of control | [5] 107 % of control | [6] 98 % of control

CCCCCCCCCCCC(=O)NC(=S)Nc1ncccn1
inactive: dose: 100.0 mg/kg/injection, schedule: Q01DX001 (ip), vehicle: other 93 % of control | dose: 100.0 mg/kg/injection, schedule: Q01DX009 (ip), vehicle: other 91 % of control and 97 % of control | dose: 100.0 mg/kg/injection, schedule: Q04DX002 (ip), vehicle: other 98 % of control | dose: 200.0 mg/kg/injection, schedule: Q01DX001 (ip), vehicle: other 87 % of control | dose: 200.0 mg/kg/injection, schedule: Q01DX009 (ip), vehicle: other 92 % of control and 93 % of control | dose: 200.0 mg/kg/injection, schedule: Q04DX002 (ip), vehicle: other 102 % of control | dose: 400.0 mg/kg/injection, schedule: Q01DX001 (ip), vehicle: other 93 % of control | dose: 400.0 mg/kg/injection, schedule: Q01DX009 (ip), vehicle: other 92 % of control and 101 % of control | dose: 400.0 mg/kg/injection, schedule: Q04DX002 (ip), vehicle: other 87 % of control

CSc1nc(N)c2c3c(N)ncnc3n(C3OC(CO)C(O)C3O)c2n1 (centres undefined)
inactive: dose: 25.0 mg/kg/injection, schedule: Q01DX005 (ip), vehicle: distilled water + Tween-80 97 % of control | dose: 50.0 mg/kg/injection, schedule: Q01DX005 (ip), vehicle: distilled water + Tween-80 91 % of control | dose: 100.0 mg/kg/injection, schedule: Q01DX005 (ip), vehicle: distilled water + Tween-80 91 % of control | dose: 200.0 mg/kg/injection, schedule: Q01DX005 (ip), vehicle: distilled water + Tween-80 97 % of control | dose: 400.0 mg/kg/injection, schedule: Q01DX005 (ip), vehicle: distilled water + Tween-80 101 % of control

CCOC(=O)c1cnc2c(cnn2CC)c1N1CCCCC1
inactive: dose: 100.0 mg/kg/injection, schedule: Q04DX003 (ip), vehicle: Klucel (hydroxypropylcellulose) (HPC) 89 % of control | dose: 200.0 mg/kg/injection, schedule: Q04DX003 (ip), vehicle: Klucel (hydroxypropylcellulose) (HPC) 97 % of control

O=c1ccccn1CCc1ccccc1
inactive: dose: 12.5 mg/kg/injection, schedule: Q01DX009 (ip), vehicle: saline with Tween-80 101 % of control | dose: 25.0 mg/kg/injection, schedule: Q01DX009 (ip), vehicle: saline with Tween-80 98 % of control | dose: 50.0 mg/kg/injection, schedule: Q01DX009 (ip), vehicle: saline with Tween-80 101 % of control

c1cc2c3c(c4sc5ccccc5c4cc3c1)CC2
inactive: dose: 12.5 mg/kg/injection, schedule: Q04DX003 (ip), vehicle: other 101 % of control | dose: 25.0 mg/kg/injection, schedule: Q04DX003 (ip), vehicle: other 115 % of control | dose: 50.0 mg/kg/injection, schedule: Q04DX003 (ip), vehicle: other 108 % of control | dose: 100.0 mg/kg/injection, schedule: Q04DX003 (ip), vehicle: other 115 % of control | dose: 200.0 mg/kg/injection, schedule: Q04DX003 (ip), vehicle: other 108 % of control

Oc1ccc(/C=N/NC(=S)NN2CCOCC2)nc1
inactive: dose: 3.12 mg/kg/injection, schedule: Q01DX009 (ip), vehicle: Klucel (hydroxypropylcellulose) (HPC) 103 % of control | dose: 6.25 mg/kg/injection, schedule: Q01DX009 (ip), vehicle: Klucel (hydroxypropylcellulose) (HPC) 104 % of control | dose: 12.5 mg/kg/injection, schedule: Q01DX009 (ip), vehicle: Klucel (hydroxypropylcellulose) (HPC) 101 % of control | dose: 25.0 mg/kg/injection, schedule: Q01DX009 (ip), vehicle: Klucel (hydroxypropylcellulose) (HPC) 121 % of control | dose: 25.0 mg/kg/injection, schedule: Q04DX002 (ip), vehicle: saline with Tween-80 101 % of control | dose: 50.0 mg/kg/injection, schedule: Q01DX009 (ip), vehicle: Klucel (hydroxypropylcellulose) (HPC) 95 % of control | [8] 91 % of control and 94 % of control

O=C(Nc1ccccc1I)c1ccccc1
inactive: [1] 110 % of control | [2] 98 % of control | [3] 98 % of control

CCCCCCCCCCCCOC(=O)c1ccc([N+](=O)[O-])cc1
inactive: [7] 94 % of control | [9] 91 % of control | [10] 91 % of control

CCOC(=O)/C(=C/C(C#N)=C/N(C)C)CC
inactive: dose: 100.0 mg/kg/injection, schedule: Q04DX003 (ip), vehicle: saline sonified 93 % of control | dose: 200.0 mg/kg/injection, schedule: Q04DX003 (ip), vehicle: saline sonified 108 % of control

CSc1ncnc2cn(C3OC(CO)C(O)C3O)nc12 (centres undefined)
inactive: dose: 6.25 mg/kg/injection, schedule: Q01DX005 (ip), vehicle: water 96 % of control | dose: 12.5 mg/kg/injection, schedule: Q01DX005 (ip), vehicle: water 100 % of control | dose: 25.0 mg/kg/injection, schedule: Q01DX005 (ip), vehicle: water 114 % of control | dose: 50.0 mg/kg/injection, schedule: Q01DX005 (ip), vehicle: water 92 % of control | dose: 100.0 mg/kg/injection, schedule: Q01DX005 (ip), vehicle: water 100 % of control | dose: 200.0 mg/kg/injection, schedule: Q01DX005 (ip), vehicle: water 86 % of control

Cc1ccc(S(=O)(=O)OCCCCCOS(=O)(=O)c2ccc(C)cc2)cc1
inactive: dose: 100.0 mg/kg/injection, schedule: Q01DX009 (ip), vehicle: saline with Tween-80 100 % of control | [1] 100 % of control | dose: 200.0 mg/kg/injection, schedule: Q01DX009 (ip), vehicle: saline with Tween-80 100 % of control | [2] 100 % of control | dose: 400.0 mg/kg/injection, schedule: Q01DX009 (ip), vehicle: saline with Tween-80 100 % of control | [3] 97 % of control

CCC(C)C1NC(=O)C(NC(=O)c2c3nc4c(C(=O)NC5C(=O)NC(C(C)CC)C(=O)N6CCCC6C(=O)N(C)CC(=O)N(C)C(C(C)C)C(=O)OC5C)cc(N)c(C)c4oc-3c(C)c(=O)c2N)C(C)OC(=O)C(C(C)C)N(C)C(=O)CN(C)C(=O)C2CCCN2C1=O (centres undefined)
inactive: dose: 25.0 micrograms/kg/injection, schedule: Q01DX009 (ip), vehicle: water 116 % of control | dose: 50.0 micrograms/kg/injection, schedule: Q01DX009 (ip), vehicle: water 121 % of control

Source: PubChem BioAssay AID256 (DTP/NCI, 2004)
